According to patent US9763942B2, “Serine/threonine kinase inhibitors” (Array BioPharma Inc., priority 2013, dated 2017):

Biological target: T1, human ERK-2 (Mitogen Activated Kinase 1) (Homo sapiens, UniProt P28482)
T1 construct: n-terminal 6-His fusion protein in E. coli and corresponding to aa 8-360; 6-His (N); made in house; host or cells: E. coli
Assay: ERK-2 Enzymatic Assay
Assay type: biochemical
Settings: ERK-2 enzymatic assay; read-out: IC50
Description: Table 1 contains representative data for Examples disclosed herein.

T1 sequence (P28482 8-360): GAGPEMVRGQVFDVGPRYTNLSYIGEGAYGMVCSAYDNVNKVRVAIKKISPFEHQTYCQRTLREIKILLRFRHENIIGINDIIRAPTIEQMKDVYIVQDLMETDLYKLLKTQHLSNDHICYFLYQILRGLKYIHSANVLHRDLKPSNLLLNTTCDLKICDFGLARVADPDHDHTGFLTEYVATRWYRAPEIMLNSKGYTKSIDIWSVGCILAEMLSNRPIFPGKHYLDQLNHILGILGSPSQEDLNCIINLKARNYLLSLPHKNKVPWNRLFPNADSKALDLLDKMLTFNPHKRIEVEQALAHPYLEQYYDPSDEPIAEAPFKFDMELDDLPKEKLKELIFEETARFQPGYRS

Row | Compound | IC50
1 | Cn1nccc1Nc1nccc(-c2ccc3c(c2)nnn3[C@H]2CNCC(F)(F)C2)n1 [Example 79, (R)-4-(1-(5,5-difluoropiperidin-3-yl)-1H-benzo[d][1,2,3]triazol-5-yl)-N-(1-methyl-1H-pyrazol-5-yl)pyrimidin-2-amine] | < 100 nM
2 | Cc1cc(-n2nnc3cc(-c4ccnc(Nc5ccnn5C)n4)ccc32)n(-c2ccccn2)n1 [Example 82, 4-(1-(3-methyl-1-(pyridin-2-yl)-1H-pyrazol-5-yl)-1H-benzo[d][1,2,3]triazol-5-yl)-N-(1-methyl-1H-pyrazol-5-yl)pyrimidin-2-amine] | < 100 nM
3 | COc1ccc(Cn2nnc3cc(-c4ccnc(NCC5COC5)n4)ccc32)cc1F [Example 17, 4-(1-(3-fluoro-4-methoxybenzyl)-1H-benzo[d][1,2,3]triazol-5-yl)-N-(oxetan-3-ylrnethyl)pyrimidin-2-amine] | < 100 nM
4 | COCC(C)(C)Cn1nnc2cc(-c3ccnc(Nc4ccnn4C)n3)ccc21 [Example 46, 4-(1-(3-methoxy-2,2-dimethylpropyl)-1H-benzo[d][1,2,3]triazol-5-yl)-N-(1-methyl-1H-pyrazol-5-yl)pyrimidin-2-amine] | < 100 nM
5 | COc1ccc(Cn2nnc3cc(-c4ccnc(NC5CC5)n4)ccc32)cc1F [Example 15, N-cyclopropyl-4-(1-(3-fluoro-4-methoxybenzyl)-1H-benzo[d][1,2,3]triazol-5-yl)pyrimidin-2-amine] | < 100 nM
6 | COc1ccc(Cn2nnc3cc(-c4ccnc(NC5CCC5)n4)ccc32)cc1F [Example 12, N-cyclobutyl-4-(1-(3-fluoro-4-methoxybenzyl)-1H-benzo[d][1,2,3]triazol-5-yl)pyrimidin-2-amine] | < 100 nM
7 | COc1ncccc1Cn1nnc2cc(-c3ccnc(Nc4ccnn4C)c3)ccc21 [Example 54, 4-(1-((2-methoxypyridin-3-yl)methyl)-1H-benzo[d][1,2,3]triazol-5-yl)-N-(1-methyl-1H-pyrazol-5-yl)pyridin-2-amine] | < 100 nM

Continued, values first:

Row | IC50 | Compound
8 | < 100 nM | Cn1nccc1Nc1nccc(-c2cnc3c(c2)nnn3Cc2ccc(F)c(Cl)c2)n1 [Example 121, 4-(3-(3-chloro-4-fluorobenzyl)-3H-[1,2,3]triazolo[4,5-b]pyridin-6-yl)-N-(1-methyl-1H-pyrazol-5-yl)pyrimidin-2-amine]
9 | < 100 nM | COc1ccc(Cn2nnc3cc(-c4ccnc(Nc5cnn(C)n5)n4)ccc32)cc1F [Example 9, 4-(1-(3-fluoro-4-methoxybenzyl)-1H-benzo[d][1,2,3]triazol-5-yl)-N-(2-methyl-2H-1,2,3-triazol-4-yl)pyrimidin-2-amine]
10 | < 100 nM | Cn1nccc1Nc1nccc(-c2ccc3c(c2)nnn3CCc2ccc(Cl)cc2)n1 [Example 3, 4-(1-(4-chlorophenethyl)-1H-benzo[d][1,2,3]triazol-5-yl)-N-(1-methyl-1H-pyrazol-5-yl)pyrimidin-2-amine]
11 | < 100 nM | CCN1C[C@@H](n2nnc3cc(-c4ccnc(Nc5ccnn5C)n4)ccc32)[C@H](c2ccc(F)c(F)c2)C1 [Example 77, 4-(1-((3S,4R)-4-(3,4-difluorophenyl)-1-ethylpyrrolidin-3-yl)-1H-benzo[d][1,2,3]triazol-5-yl)-N-(1-methyl-1H-pyrazol-5-yl)pyrimidin-2-amine]
12 | < 100 nM | Cn1nccc1Nc1nccc(-c2cnc3c(c2)nnn3Cc2ccc(Cl)cc2)n1 [Example 116, 4-(3-(4-chlorobenzyl)-3H-[1,2,3]triazolo[4,5-b]pyridin-6-yl)-N-(1-methyl-1H-pyrazol-5-yl)pyrimidin-2-amine]
13 | < 100 nM | Cn1nccc1Nc1nccc(-c2ccc3c(c2)nnn3Cc2ncc(F)cc2F)n1 [Example 69, 4-(1-((3,5-difluoropyridin-2-yl)methyl)-1H-benzo[d][1,2,3]triazol-5-yl)-N-(1-methyl-1H-pyrazol-5-yl)pyrimidin-2-amine]
